Data: patent publication US9386787B2, “Preparations for oral consumption” (Symrise AG, priority 2012, dated 2016)
Marks after values point to notes of the source that are not given here.

Experiment: multiple time-intensity profiling (mTIP) of astringency, trained panel
Type: in vivo
Conditions: 750 mg/kg EGCG + 125 mg/kg ascorbic acid; for Reduction (%) of astringency: 300 μg/kg Frescolat ML vs without; for Astringency with Frescolat ML: 300 μg/kg Frescolat ML
Description: In order to evaluate different attributes of a sample simultaneously over a particular period of time, the method of so-called “multiple time-intensity profiling” (mITP) was used. This descriptive method combines the advantages of the “dual-attribute time-intensity” (DATI) method, in which the intensities of two descriptors can be plotted on a two-dimensional plane, and the “time-intensity profiling” (TIP) method, in which more than two descriptors are evaluated in succession over time. In each mTIP test, trained panellists (n=15) are asked to take 2 mouthfuls (each 5 ml) of the sample to be evaluated, to wet the entire oral cavity therewith, and then to spit the sample out again. […] A parallel evaluation of more than two attributes is thus possible. The intensities are read after the first 10 seconds and then every 20 seconds over a period of 70 seconds. The data produced are analysed by means of Compusense® five and represented graphically as a time-intensity curve. In order to show the astringency-masking effect of L-lactic acid L-menthyl ester (Frescolat ML), the panel was trained inter alia with an aqueous test solution comprising 750 mg/kg of epigallocatechin gallate and 125 mg/kg of ascorbic acid. The panellists were asked to evaluate the test solution in respect of its bitterness and astringency using the above-described method. In a subsequent test, the two descriptors were evaluated on the one hand for the above-described test solution and on the other hand for the test solution plus 300 μg/kg of Frescolat ML. The results of both time-intensity curves were evaluated statistically and compared with one another in order to determine an astringency-masking effect of Frescolat® ML. For the significance calculation, the Student t-test, duplicated with paired random samples, was used.

## CC(C)[C@@H]1CC[C@@H](C)C[C@H]1OC(=O)[C@H](C)O [Frescolat ML, L-lactic acid L-menthyl ester]
Time 0 sec
  Reduction (%) of astringency: −0.49%
  Astringency with Frescolat ML: 4.81
Time 10 sec
  Reduction (%) of astringency: −14.29%
  Astringency with Frescolat ML: 4.11
Time 30 sec, significant (p < 0.1)
  Reduction (%) of astringency: −20.58* %
Time 50 sec, significant (p < 0.1)
  Reduction (%) of astringency: −22.24* %
Time 70 sec
  Reduction (%) of astringency: −17.82%
  Astringency with Frescolat ML: 2.04
Time 30 sec
  Astringency with Frescolat ML: 3.38
Time 50 sec
  Astringency with Frescolat ML: 2.58
